Data on 30 compounds can be found in US10526327B2, “Histone demethylase inhibitors” (CELGENE QUANTICEL RESEARCH, INC., priority 2013, dated 2020).

What is called IC50 is the concentration that inhibits the measured activity by half.

Bounds are passed on as bounds.

One assay deals with T1, Jarid1A (Homo sapiens, UniProt P29375).
T1 construct: purchased BPS Bioscience 50110
T1 sequence (P29375 1-1090): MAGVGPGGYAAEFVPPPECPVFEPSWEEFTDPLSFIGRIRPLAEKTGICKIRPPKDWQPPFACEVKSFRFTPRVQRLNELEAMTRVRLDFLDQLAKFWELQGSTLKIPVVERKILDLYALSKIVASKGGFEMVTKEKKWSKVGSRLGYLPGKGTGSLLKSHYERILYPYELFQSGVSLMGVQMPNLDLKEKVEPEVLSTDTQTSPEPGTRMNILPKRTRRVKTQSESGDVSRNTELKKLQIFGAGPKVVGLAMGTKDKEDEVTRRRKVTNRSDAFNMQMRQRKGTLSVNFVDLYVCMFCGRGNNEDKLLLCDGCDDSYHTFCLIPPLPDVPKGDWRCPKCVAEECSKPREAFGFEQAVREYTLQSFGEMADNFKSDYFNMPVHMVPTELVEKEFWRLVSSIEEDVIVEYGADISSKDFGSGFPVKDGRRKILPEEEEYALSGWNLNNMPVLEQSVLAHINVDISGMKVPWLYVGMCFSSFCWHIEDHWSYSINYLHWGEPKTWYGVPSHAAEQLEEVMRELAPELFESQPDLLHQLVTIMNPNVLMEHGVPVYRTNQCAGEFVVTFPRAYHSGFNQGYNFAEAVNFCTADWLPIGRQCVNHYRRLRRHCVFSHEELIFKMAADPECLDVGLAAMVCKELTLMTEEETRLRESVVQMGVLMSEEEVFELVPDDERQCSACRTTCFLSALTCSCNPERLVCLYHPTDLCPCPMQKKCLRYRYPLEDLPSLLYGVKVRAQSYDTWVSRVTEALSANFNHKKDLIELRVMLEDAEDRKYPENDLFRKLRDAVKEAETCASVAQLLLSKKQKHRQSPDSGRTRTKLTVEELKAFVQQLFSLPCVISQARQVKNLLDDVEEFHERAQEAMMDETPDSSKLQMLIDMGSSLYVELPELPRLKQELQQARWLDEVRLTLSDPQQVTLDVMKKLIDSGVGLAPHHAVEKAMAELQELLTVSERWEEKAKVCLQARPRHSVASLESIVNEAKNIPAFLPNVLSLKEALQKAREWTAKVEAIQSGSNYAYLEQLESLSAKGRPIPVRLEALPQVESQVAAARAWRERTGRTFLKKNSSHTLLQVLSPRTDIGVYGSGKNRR
As to the kind of experiment: Jarid1A in vitro enzyme inhibition assay (TR-FRET). The class given is biochemical.
Conditions: not given
Summed up:
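Demethylation of 300 nM biotin-H3K4me3 peptide by 1 nM baculovirus-expressed Jarid1A (aa 1–1090) with 2 μM α-ketoglutarate, Fe(II) and ascorbate, pH 7.3, 30 min at room temperature. Stopped with EDTA; H3K4me1-2 product detected by TR-FRET (Eu anti-H3K4me1-2/streptavidin-APC). IC50 fitted from 665/615 ratio over 11-point dilutions.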
For orientation: In TR-FRET formats the signal depends on donor and acceptor labels being close together.
In turn, `Oc1nc(Oc2cnn([C@H]3CCN(c4ccccc4F)C3)c2)nc2cnccc12` [Example 147, 2-({1-[(3S)-1-(2-fluorophenyl)pyrrolidin-3-yl]-1H-pyrazol-4-yl}oxy)pyrido[3,4-d]pyrimidin-4-ol] registered an IC50 of at most 100 nM.
Still for that read-out and setting: with `Oc1nc(Oc2cnn([C@H]3CCCNC3)c2)nc2cnccc12` [Example 160, 2-({1-[(3S)-piperidin-3-yl]-1H-pyrazol-4-yl}oxy)pyrido[3,4-d]pyrimidin-4-ol] the figure was at most 100 nM; with `Oc1nc(OCCc2ccccc2)nc2cnccc12` [Example 18, 2-(2-phenylethoxy)pyrido[3,4-d]pyrimidin-4-ol], at most 100 nM.
Still for that read-out and setting: with `O=S(=O)(c1ccccc1)N1CCC[C@@H](n2cc(Oc3nc(O)c4ccncc4n3)cn2)C1` [Example 152, 2-({1-[(3R)-1-(benzenesulfonyl)piperidin-3-yl]-1H-pyrazol-4-yl}oxy)pyrido[3,4-d]pyrimidin-4-ol] the figure was at most 100 nM.
The same measure, in the same setting: as for `Oc1nc(OC(c2ccccc2)C(F)(F)F)nc2cnccc12` (centres unmarked) [Example 176, 2-(2,2,2-trifluoro-1-phenylethoxy)pyrido[3,4-d]pyrimidin-4-ol], the figure is 1000 to 10000 nM.
`Cn1cnc(-c2nccc3c(O)nc(O[C@H](c4ccccc4)C(F)(F)F)nc23)c1` [Example 108, 8-(1-methyl-1H-imidazol-4-yl)-2-[(1R)-2,2,2-trifluoro-1-phenylethoxy]pyrido[3,4-d]pyrimidin-4-ol] had an IC50 of 1000 to 10000 nM.
The same measure, in the same setting: with `Oc1nc(OCc2ccc(C(F)(F)F)cc2)nc2cnccc12` [Example 170, 2-{[4-(trifluoromethyl)phenyl]methoxy}pyrido[3,4-d]pyrimidin-4-ol] the figure was 1000 to 10000 nM; with `CNCC(=O)N1CC[C@H](n2cc(Oc3nc(O)c4ccncc4n3)cn2)C1` [Example 144, 1-[(3S)-3-[4-({4-hydroxypyrido[3,4-d]pyrimidin-2-yl}oxy)-1H-pyrazol-1-yl]pyrrolidin-1-yl]-2-(methylamino)ethan-1-one], at most 100 nM.
On the same count and under the same terms, as for `Oc1nc(Oc2cnn(C3CCCN(c4ccc(F)cc4)C3)c2)nc2cnccc12` (stereo in doubt) [Example 169, 2-({1-[(3R)-1-(4-fluorophenyl)piperidin-3-yl]-1H-pyrazol-4-yl}oxy)pyrido[3,4-d]pyrimidin-4-ol], the figure is at most 100 nM; as for `Oc1nc(OCCc2ccc(Cl)c(Cl)c2)nc2cnccc12` [Example 175, 2-[2-(3,4-dichlorophenyl)ethoxy]pyrido[3,4-d]pyrimidin-4-ol], 1000 to 10000 nM; as for `COCCOc1nc(O)c2ccncc2n1` [Example 22, 2-(2-methoxyethoxy)pyrido[3,4-d]pyrimidin-4-ol], 100 to 1000 nM.
On the same count and under the same terms, with `Cn1cnc(-c2nccc3c(O)nc(O[C@@H](c4ccccc4)C(F)(F)F)nc23)c1` [Example 109, 8-(1-methyl-1H-imidazol-4-yl)-2-[(1S)-2,2,2-trifluoro-1-phenylethoxy]pyrido[3,4-d]pyrimidin-4-ol] the figure was 1000 to 10000 nM; with `Cn1cnc(-c2nccc3c(O)nc(OCc4ccc(Cl)cc4)nc23)c1` [Example 112, 2-[(4-chlorophenyl)methoxy]-8-(1-methyl-1H-imidazol-4-yl)pyrido[3,4-d]pyrimidin-4-ol], 100 to 1000 nM; with `Cn1cnc(-c2nccc3c(O)nc(OCc4ccccc4C(F)(F)F)nc23)c1` [Example 107, 8-(1-methyl-1H-imidazol-4-yl)-2-{[2-(trifluoromethyl)phenyl]methoxy}pyrido[3,4-d]pyrimidin-4-ol], 100 to 1000 nM.
For `CC(Cc1ccccc1)Oc1nc(O)c2ccncc2n1` (centres unmarked) [Example 19, 2-(1-phenylpropan-2-yloxy)pyrido[3,4-d]pyrimidin-4-ol], the 50% inhibitory concentration (IC50) was in the range of 1000 to 10000 nM.
In the case of `CC(COc1nc(O)c2ccncc2n1)c1ccccc1` (centres unmarked) [Example 17, 2-(2-phenylpropoxy)pyrido[3,4-d]pyrimidin-4-ol], the IC50 was in the range of 100 to 1000 nM.
For `Oc1nc(OCc2cccc(Cl)c2Cl)nc2cnccc12` [Example 173, 2-[(2,3-dichlorophenyl)methoxy]pyrido[3,4-d]pyrimidin-4-ol], the IC50 was 1000 to 10000 nM.
Same read-out and setting: with `CC(C)COc1nc(O)c2ccncc2n1` [Example 14, 2-(2-methylpropoxy)pyrido[3,4-d]pyrimidin-4-ol] the figure was 100 to 1000 nM.
On the same count and under the same terms, with `CN(C)CCCOc1nc(O)c2ccncc2n1` [Example 21, 2-[3-(dimethylamino)propoxy]pyrido[3,4-d]pyrimidin-4-ol] the figure was 100 to 1000 nM; with `O=C(C1CCNCC1)N1CC[C@H](n2cc(Oc3nc(O)c4ccncc4n3)cn2)C1` [Example 143, 2-({1-[(3S)-1-(piperidine-4-carbonyl)pyrrolidin-3-yl]-1H-pyrazol-4-yl}oxy)pyrido[3,4-d]pyrimidin-4-ol], at most 100 nM.
Same read-out and setting: as for `Oc1nc(OCCc2ccc(Cl)cc2)nc2cnccc12` [Example 174, 2-[2-(4-chlorophenyl)ethoxy]pyrido[3,4-d]pyrimidin-4-ol], the figure is at most 100 nM; as for `CCC(C)COc1nc(O)c2ccncc2n1` (centres unmarked) [Example 16, 2-(2-methylbutoxy)pyrido[3,4-d]pyrimidin-4-ol], 100 to 1000 nM.
`CCC(Oc1nc(O)c2ccnc(-c3cn(C)cn3)c2n1)C(F)(F)F` (centres unmarked) [Example 110, 8-(1-methyl-1H-imidazol-4-yl)-2-[(1,1,1-trifluorobutan-2-yl)oxy]pyrido[3,4-d]pyrimidin-4-ol]: the IC50 lay in the range of 100 to 1000 nM.
On the same count and under the same terms, with `Oc1nc(OCc2c(Cl)cccc2Cl)nc2cnccc12` [Example 172, 2-[(2,6-dichlorophenyl)methoxy]pyrido[3,4-d]pyrimidin-4-ol] the figure was 1000 to 10000 nM; with `Oc1nc(Oc2ccc(Cl)c(Cl)c2)nc2cnccc12` [Example 114, 2-(3,4-dichlorophenoxy)pyrido[3,4-d]pyrimidin-4-ol], 100 to 1000 nM.
The compound `Oc1nc(Oc2cnn(C(c3ccccc3)C3CC3)c2)nc2cnccc12` (centres unmarked) [Example 116, 2-({1-[cyclopropyl(phenyl)methyl]-1H-pyrazol-4-yl}oxy)pyrido[3,4-d]pyrimidin-4-ol] yielded an IC50 of at most 100 nM.
On the same count and under the same terms, as for `Oc1nc(Oc2cnn(C3CCN(Cc4ccccc4)CC3)c2)nc2cnccc12` [Example 123, 2-{[1-(1-benzylpiperidin-4-yl)-1H-pyrazol-4-yl]oxy}pyrido[3,4-d]pyrimidin-4-ol], the figure is at most 100 nM; as for `Oc1nc(OCc2ccccc2Cl)nc2cnccc12` [Example 171, 2-[(2-chlorophenyl)methoxy]pyrido[3,4-d]pyrimidin-4-ol], 1000 to 10000 nM.
Still for that read-out and setting: as for `Cn1cnc(-c2nccc3c(O)nc(OCc4ccc(C(F)(F)F)cc4)nc23)c1` [Example 111, 8-(1-methyl-1H-imidazol-4-yl)-2-{[4-(trifluoromethyl)phenyl]methoxy}pyrido[3,4-d]pyrimidin-4-ol], the figure is at most 100 nM.
Still for that read-out and setting: with `Oc1nc(Oc2cnn([C@@H]3CCCNC3)c2)nc2cnccc12` [Example 149, 2-({1-[(3R)-piperidin-3-yl]-1H-pyrazol-4-yl}oxy)pyrido[3,4-d]pyrimidin-4-ol] the figure was at most 100 nM.

The next assay concerns KDM5A/B. In words: In vitro cell-based assay: immuno-blot quantification of tri-methyl H3K4 in ZR-75-1 breast cancer cells. Conditions: 72 hours, tri-methyl H3K4 level relative to GAPDH, percent of DMSO, read-out: Cellular IC50. The source says: An assay to measure the degree of cellular inhibition of KDM5A and 5B was developed. This quantitative immuno-blotting assay measures the amount tri-methylated histone H3 at amino acid Lysine number 4, a specific substrate […] of the direct enzymatic activity of the histone demethylases KDM5A and KDM5B from extracts of the ZR-75-1 breast cancer cell line.
This assay is a fluorometric immunoassay for the quantification of tri-methyl H3K4 extracted from cells treated with test compound and is used as a measure of the cellular inhibition of KDM5A/B.
ZR-75-1 (PTEN null, ER+) breast cancer cells numbering 50,000 (ATCC) were seeded into each well of a 96-well tissue culture treated plate and then exposed to an 11 point dilution of test compound with final concentration ranges of test compound ranging from 1250 μM to 10 nM. Cells were left in the presence of test compound for 72 hours. Extracts were prepared containing all of the cellular histone material using detergent based lysis and sonication methods. These lysates were subsequently normalized for total protein content using a colorimetric bicinchonic acid assay (MicroBCA Pierce/Thermo Scientific). Normalized cell extracts were then subjected to typical immuno-blotting procedures using NuPage reagents (Life Technologies). Electrophoretically separated histones were then transferred and immobilized using polyvinylidene difluoride membrane (Immobilon-FL Millipore). The amount of tri-methylated lysine 4 of histone H3 was detected using an antibody specific to the tri-methylated state (Cell Signaling Technologies) and quantified on an infrared imager using a densitometry software package (Odyssey CLx, Image Studio, Li-Cor). This background subtracted densitometry value was reported as a ration of the GAPDH amount for that sample and then calculated as a percent of the DMSO treated sample. The software package XL-fit (IDBS) was then used to calculate a relative IC50 value for the dilution series of a given test compound according to the equation: fit=(D+((Vmax*(x^n))/((x^n)+(Km^n)))).
For `Oc1nc(Oc2cnn([C@H]3CCN(c4ccccc4F)C3)c2)nc2cnccc12` [Example 147, 2-({1-[(3S)-1-(2-fluorophenyl)pyrrolidin-3-yl]-1H-pyrazol-4-yl}oxy)pyrido[3,4-d]pyrimidin-4-ol], the IC50 is 1000 to 10000 nM.
On the same count and under the same terms, as for `Oc1nc(OCCc2ccccc2)nc2cnccc12` [Example 18, 2-(2-phenylethoxy)pyrido[3,4-d]pyrimidin-4-ol], the figure is 1000 to 10000 nM.
